Consider 18 compounds from patent US20240398812A1 (Caraway Therapeutics, Inc., priority 2021, published 2024).

One assay deals with human TRPML1 (Homo sapiens, UniProt Q9GZU1). In words: Fluorescent TRPML1 assay (Fluo4-AM calcium fluorescence, HEK-293 Trex cells). In kind it is cell-based. As to the method: (§1) HEK-293 Trex cells were stably transfected with a construct consisting of the human coding sequence for TRPML1 cloned into the tet-inducible plasmid pCDNA5 T/O. Mutations were introduced into the TRPML1 sequence to facilitate expression on the cell surface (Silvia Vergarajauregui, Rosa Puertollano Traffic. 2006 March; 7 (3): 337-353). Briefly, the cells are cultured in 150 mm round tissue culture dishes containing 20 mL of media. The day before the assay the cells are rinsed with DPBS —Ca—Mg and then treated briefly with Trypsin-EDTA. The Trypsin-EDTA is diluted with growth media, and cells are counted. 38×10^6 cells are re-plated into 150 mm round tissue culture dishes in media containing 0.5 ug/mL doxycycline to induce expression of hTRPML1.
(§2) The day of the experiment cells are lifted from the plates as above and collected by centrifugation. The cells are then suspended in dye loading buffer consisting of Ringer's solution supplemented with 0.1% Pluronic Acid and 1 micromolar Fluo4-AM dye. Cells are loaded for ˜60 minutes in the dark with occasional mixing. The cells are collected by centrifugation, the loading media aspirated, and the cells resuspended in 25 mL Ringer's solution and incubated ˜60 minutes in the dark. The cells are again collected by centrifugation, rinsed in Ringer's Solution and resuspended to 0.2×10^6 cells/mL in modified Ringer's solution containing 10 mM calcium.
(§3) Compounds are dissolved to a concentration of 10 millimolar with DMSO. Compound plates are created by dispensing compounds into 384 well black wall clear bottom plates (Greiner 781091). Positive and negative controls are included on each plate. Typically, different amounts of each compound are tested ranging from 100 nanoMoles (20 micromolar final concentration) decreasing in half-log steps to 31 picoMoles (6 nanomolar final concentration). Each concentration is typically tested in triplicate.
(§4) 50 microliters of dye-loaded cells are dispensed into each well of the compound assay plate created above. The fluorescence in each well is then determined with an excitation wavelength of 480 nm and an emission wavelength of 540 nm using either a Molecular Devices SpectraMax multimode plate reader or a Hamamatsu FDSS/uCell plate imager.
(§5) The resulting fluorescence for each well is exported as an ascii file and loaded into our LIMS for analysis. The percent activity of each compound at each concentration is determined by comparison to the positive and negative control wells included in each plate.
(§6) EC50 values were calculated using a non-linear regression of Prism. In the table, “A” indicates an EC50 of less than 100 nM, “B” indicates an EC50 range from 100 nM to 500 nM; “C” indicates an EC50 range from 500 nM to 2 μM; and “D” indicates an EC50 greater than 2 μM.

Another assay concerns the target T1, TRPML3 (Homo sapiens, UniProt Q8TDD5).
T1 construct: expressed in transfected cells
T1 sequence (Q8TDD5 1-553): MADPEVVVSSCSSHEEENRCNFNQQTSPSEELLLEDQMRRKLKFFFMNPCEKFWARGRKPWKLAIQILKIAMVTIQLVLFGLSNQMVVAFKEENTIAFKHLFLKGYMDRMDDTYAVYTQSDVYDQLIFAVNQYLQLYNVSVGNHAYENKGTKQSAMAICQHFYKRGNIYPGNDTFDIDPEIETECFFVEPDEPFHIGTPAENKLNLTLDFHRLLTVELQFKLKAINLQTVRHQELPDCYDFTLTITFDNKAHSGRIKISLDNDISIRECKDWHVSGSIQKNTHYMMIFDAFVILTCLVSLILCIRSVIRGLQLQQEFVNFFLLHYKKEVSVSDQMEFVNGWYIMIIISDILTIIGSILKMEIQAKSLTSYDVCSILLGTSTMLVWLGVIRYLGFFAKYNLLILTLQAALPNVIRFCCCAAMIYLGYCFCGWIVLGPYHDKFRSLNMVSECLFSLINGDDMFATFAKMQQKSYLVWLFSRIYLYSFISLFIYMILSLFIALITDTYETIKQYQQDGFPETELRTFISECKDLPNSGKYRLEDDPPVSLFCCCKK
In words: Fluorescent TRPML3 assay (as for TRPML1). In kind it is cell-based. As to the method: as §1, §2, §3, §4, §5
Assays for TRPML2 and TRPML3 were performed as above for TRPML1, by substituting the appropriate TRPML2 or TRPML3 subtype for the TRPML1.
as §6

Sequence of human TRPML1 (Q9GZU1 whole entry L15A/L16A/L577A/L578A, form open): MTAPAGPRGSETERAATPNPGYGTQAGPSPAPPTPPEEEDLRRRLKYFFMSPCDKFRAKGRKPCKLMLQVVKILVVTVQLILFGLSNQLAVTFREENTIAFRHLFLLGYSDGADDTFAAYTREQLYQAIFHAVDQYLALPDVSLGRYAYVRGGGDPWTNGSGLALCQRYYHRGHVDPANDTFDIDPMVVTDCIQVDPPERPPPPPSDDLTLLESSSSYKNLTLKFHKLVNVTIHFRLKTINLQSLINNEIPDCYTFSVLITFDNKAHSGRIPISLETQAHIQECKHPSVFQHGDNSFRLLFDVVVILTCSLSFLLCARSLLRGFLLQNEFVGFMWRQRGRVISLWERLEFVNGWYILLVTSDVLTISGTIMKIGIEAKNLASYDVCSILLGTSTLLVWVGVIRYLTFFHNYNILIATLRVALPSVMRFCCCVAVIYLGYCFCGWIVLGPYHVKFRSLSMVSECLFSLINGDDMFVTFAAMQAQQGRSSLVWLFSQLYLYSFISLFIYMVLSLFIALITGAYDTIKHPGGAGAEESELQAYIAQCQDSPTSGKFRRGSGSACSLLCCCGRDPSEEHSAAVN

For orientation: EC50 means the midpoint of the concentration-response curve. On to `C[C@@H]1CN(c2ncnc3c2c(-c2ccccc2F)cn3-c2cc(F)ccn2)[C@@H](C)CN1C(=O)C(C)(C)O` [Compound 169, 1-((2R,5S)-4-(5-(2-fluorophenyl)-7-(4-fluoropyridin-2-yl)-7H-pyrrolo[2,3-d]pyrimidin-4-yl)-2,5-dimethylpiperazin-1-yl)-2-hydroxy-2-methylpropan-1-one], for which the EC50 at human TRPML1 (Table 3, compounds 101-177) is below 100 nM; on TRPML3 (Table 3, compounds 101-177), 100 to 500 nM.
On to `CC(C)C(=O)N1CCN(c2ncnc3c2c(-c2ccccc2F)cn3-c2cc(C#N)cnn2)[C@@H](C)C1` [Compound 171, (S)-6-(5-(2-fluorophenyl)-4-(4-isobutyryl-2-methylpiperazin-1-yl)-7H-pyrrolo[2,3-d]pyrimidin-7-yl)pyridazine-4-carbonitrile], for which the EC50 at human TRPML1 (Table 3, compounds 101-177) was in the range of 100 to 500 nM; on TRPML3 (Table 3, compounds 101-177), 100 to 500 nM.
Take `Cc1nccnc1-c1cn(-c2cc(C#N)ccn2)c2ncnc(N3C[C@@H](C)N(C(=O)C(C)C)C[C@@H]3C)c12` [Compound 172, 2-(4-((2S,5R)-4-isobutyryl-2,5-dimethylpiperazin-1-yl)-5-(3-methylpyrazin-2-yl)-7H-pyrrolo[2,3-d]pyrimidin-7-yl)isonicotinonitrile]: the EC50 was 500 to 2000 nM at human TRPML1 (Table 3, compounds 101-177) and above 2000 nM at TRPML3 (Table 3, compounds 101-177).
For `CC(C)(O)C(=O)N1CCN(c2ncnc3c2c(-c2ccccc2F)cn3-c2cc(C#N)ccn2)C2(CC2)C1` [Compound 174, 2-(5-(2-fluorophenyl)-4-(7-(2-hydroxy-2-methylpropanoyl)-4,7-diazaspiro[2.5]octan-4-yl)-7H-pyrrolo[2,3-d]pyrimidin-7-yl)isonicotinonitrile] the same measures were below 100 nM and below 100 nM.
For `Cc1nccnc1-c1cn(-c2cccc(Cl)c2)c2ncnc(N3C[C@@H](C)N(C(=O)C(C)C)C[C@@H]3C)c12` [Compound 175, 1-((2R,5S)-4-(7-(3-chlorophenyl)-5-(3-methylpyrazin-2-yl)-7H-pyrrolo[2,3-d]pyrimidin-4-yl)-2,5-dimethylpiperazin-1-yl)-2-methylpropan-1-one], the EC50 was 500 to 2000 nM at human TRPML1 (Table 3, compounds 101-177) and above 2000 nM on TRPML3 (Table 3, compounds 101-177).
Take `Cc1nccnc1-c1cn(-c2cccc(Cl)c2)c2ncnc(N3C[C@@H](C)N(C(=O)CC(C)C)C[C@@H]3C)c12` [Compound 176, 1-((2R,5S)-4-(7-(3-chlorophenyl)-5-(3-methylpyrazin-2-yl)-7H-pyrrolo[2,3-d]pyrimidin-4-yl)-2,5-dimethylpiperazin-1-yl)-3-methylbutan-1-one]: the EC50 on human TRPML1 (Table 3, compounds 101-177) is 500 to 2000 nM; at TRPML3 (Table 3, compounds 101-177) it was above 2000 nM.
On to `Cc1nccnc1-c1cn(-c2cc(F)cc(F)c2)c2ncnc(N3C[C@@H](C)N(C(=O)CC(C)C)C[C@@H]3C)c12` [Compound 177, 1-((2R,5S)-4-(7-(3,5-difluorophenyl)-5-(3-methylpyrazin-2-yl)-7H-pyrrolo[2,3-d]pyrimidin-4-yl)-2,5-dimethylpiperazin-1-yl)-3-methylbutan-1-one], for which the EC50 on human TRPML1 (Table 3, compounds 101-177) is 500 to 2000 nM; at TRPML3 (Table 3, compounds 101-177) it was above 2000 nM.
As for `C[C@@H]1CN(c2ncnc3c2c(C2CC2)cn3-c2cc(F)cc(F)c2)[C@@H](C)CN1C(=O)C(C)(C)C` [Compound 205, 1-((2R,5S)-4-(5-cyclopropyl-7-(3,5-difluorophenyl)-7H-pyrrolo[2,3-d]pyrimidin-4-yl)-2,5-dimethylpiperazin-1-yl)-2,2-dimethylpropan-1-one], the EC50 on human TRPML1 (Table 3, compounds 201-283) is below 100 nM; at TRPML3 (Table 3, compounds 201-283) it was 100 to 500 nM.
Take `COC(C)(C)C(=O)N1CCN(c2ncnc3c2c(C(F)(F)F)cn3-c2cc(C#N)ccn2)[C@@H](C)C1` [Compound 210, (S)-2-(4-(4-(2-methoxy-2-methylpropanoyl)-2-methylpiperazin-1-yl)-5-(trifluoromethyl)-7H-pyrrolo[2,3-d]pyrimidin-7-yl)isonicotinonitrile]: the EC50 on human TRPML1 (Table 3, compounds 201-283) lay in the range of 100 to 500 nM; on TRPML3 (Table 3, compounds 201-283), 500 to 2000 nM.
`CC(C)C(=O)N1CCN(c2ncnc3c(-c4cc(C#N)ccn4)cn(-c4ccccn4)c23)[C@@H](C)C1` [Compound 211, (S)-2-(4-(4-isobutyryl-2-methylpiperazin-1-yl)-5-(pyridin-2-yl)-5H-pyrrolo[3,2-d]pyrimidin-7-yl)isonicotinonitrile]: the concentration for a half-maximal effect (EC50) on human TRPML1 (Table 3, compounds 201-283) was above 2000 nM; at TRPML3 (Table 3, compounds 201-283), above 2000 nM.
As for `CC(C)C(=O)N1CCN(c2ncnc3c(-c4cc(C#N)ccn4)cn(-c4ccccc4F)c23)[C@@H](C)C1` [Compound 212, (S)-2-(5-(2-fluorophenyl)-4-(4-isobutyryl-2-methylpiperazin-1-yl)-5H-pyrrolo[3,2-d]pyrimidin-7-yl)isonicotinonitrile], the EC50 fell in the range of 100 to 500 nM on human TRPML1 (Table 3, compounds 201-283) and 100 to 500 nM on TRPML3 (Table 3, compounds 201-283).
For `CC(C)C(=O)N1C[C@H](C)N(c2ncnc3c(-c4cc(C#N)ccn4)cn(-c4ccccc4F)c23)C[C@H]1C` [Compound 213, 2-(5-(2-fluorophenyl)-4-((2S,5R)-4-isobutyryl-2,5-dimethylpiperazin-1-yl)-5H-pyrrolo [3,2-d]pyrimidin-7-yl)isonicotinonitrile], the EC50 on human TRPML1 (Table 3, compounds 201-283) is below 100 nM; at TRPML3 (Table 3, compounds 201-283) it was below 100 nM.
On to `C[C@H]1CN(C(=O)C(C)(C)C)CCN1c1ncnc2c1c(N1CCC1)cn2-c1cccc(F)c1` [Compound 216, (S)-1-(4-(5-(azetidin-1-yl)-7-(3-fluorophenyl)-7H-pyrrolo[2,3-d]pyrimidin-4-yl)-3-methylpiperazin-1-yl)-2,2-dimethylpropan-1-one], for which the EC50 on human TRPML1 (Table 3, compounds 201-283) is below 100 nM; at TRPML3 (Table 3, compounds 201-283), above 2000 nM.
Turning to `C[C@@H]1CN(c2ncnc3c2c(N2CCC2)cn3-c2cc(F)cc(F)c2)[C@@H](C)CN1C(=O)C(C)(C)C` [Compound 217, 1-((2R,5S)-4-(5-(azetidin-1-yl)-7-(3,5 difluorophenyl)-7H-pyrrolo[2,3-d]pyrimidin-4-yl)2,5-dimethylpiperazin-1-yl)-2,2-dimethylpropan-1-one], the EC50 on human TRPML1 (Table 3, compounds 201-283) was below 100 nM; at TRPML3 (Table 3, compounds 201-283), 100 to 500 nM.
With `CC(C)C(=O)N1C[C@H](C)N(c2ncnc3c2c(N2CCC2)cn3-c2cc(F)cc(F)c2)C[C@H]1C` [Compound 218, 1-((2R,5S)-4-(5-(azetidin-1-yl)-7-(3,5-difluorophenyl)-7H-pyrrolo[2,3-d]pyrimidin-4-yl)-2,5-dimethylpiperazin-1-yl)-2-methylpropan-1-one], the EC50 at human TRPML1 (Table 3, compounds 201-283) was in the range of 100 to 500 nM; at TRPML3 (Table 3, compounds 201-283), 500 to 2000 nM.
The corresponding values for `C[C@@H]1CN(c2ncnc3c2c(N2CCC2)cn3-c2cccc(F)c2)[C@@H](C)CN1C(=O)C(C)(C)C` [Compound 219, 1-((2R,5S)-4-(5-(azetidin-1-yl)-7-(3-fluorophenyl)-7H-pyrrolo[2,3-d]pyrimidin-4-yl)2,5-dimethylpiperazin-1-yl)-2,2-dimethylpropan-1-one] are below 100 nM and below 100 nM.
With `CC(C)C(=O)N1C[C@H](C)N(c2ncnc3c2c(N2CCC2)cn3-c2cccc(Cl)c2)C[C@H]1C` [Compound 221, 1-((2R,5S)-4-(5-(azetidin-1-yl)-7-(3-chlorophenyl)-7H-pyrrolo[2,3-d]pyrimidin-4-yl)-2,5-dimethylpiperazin-1-yl)-2-methylpropan-1-one], the EC50 at human TRPML1 (Table 3, compounds 201-283) was below 100 nM; on TRPML3 (Table 3, compounds 201-283) it was 500 to 2000 nM.
The corresponding values for `C[C@@H]1CN(c2ncnc3c2c(C(F)(F)F)cn3-c2cccc(C#N)c2)[C@@H](C)CN1C(=O)C(C)(C)C` [Compound 222, 3-(4-((2S,5R)-2,5-dimethyl-4-pivaloylpiperazin-1-yl)-5-(trifluoromethyl)-7H-pyrrolo[2,3-d]pyrimidin-7-yl)benzonitrile] are below 100 nM and 100 to 500 nM.
